A word on the EC50: it is the midpoint of the concentration-response curve.

The text below walks through data of patent US7834013B2, “Aminophenylcyclopropyl carboxylic acids and derivatives as agonists to GPR40” (GlaxoSmithKline LLC, priority 2003, dated 2010).

Counter-ions that a name gives are not always drawn.

For this experiment, the target named is T1, GPR40 (Homo sapiens, UniProt O14842).
T1 construct: expressed in transfected cells
T1 sequence (O14842 whole entry): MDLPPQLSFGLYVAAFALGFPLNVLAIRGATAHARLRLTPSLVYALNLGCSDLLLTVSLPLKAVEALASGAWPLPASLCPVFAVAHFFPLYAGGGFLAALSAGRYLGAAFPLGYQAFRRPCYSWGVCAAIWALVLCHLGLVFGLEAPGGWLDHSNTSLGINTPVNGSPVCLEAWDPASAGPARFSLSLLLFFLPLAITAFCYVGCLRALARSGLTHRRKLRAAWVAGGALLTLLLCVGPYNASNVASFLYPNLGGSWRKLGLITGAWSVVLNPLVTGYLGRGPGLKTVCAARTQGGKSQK
In words: GPR40 SAR Primary Assay (Elk-1/Gal4-luc+ reporter, luciferase activity). The experiment is classed as cell-based. Conditions: stable GPR40 Elk-1/Gal4-luc+ CHO cell line, 5 hours incubation. The procedure: An existing stable GPR40 Elk-1/Gal4-luc^+ CHO cell line generated by electroporation and functional cloning was used. Cells were maintained in a humidified incubator at 37° C./5% CO2 in complete media containing DMEM/F12 (Gibco, #11039-021), 5% FBS (Gibco, #16140-071) and 1% Glutamine (Gibco, #25030-081). Cell maintenance passages were made at 1:40 dilution every 3-4 days. Forty eight hours prior to assay, 15e6 cells were added to 200 ml of complete media then seeded into a 1200 cm^2-cell factory and returned to a humidified incubator at 37° C./5% CO2. 20 hours prior to assay, the growth media was removed and replaced with 200 ml of serum-free DMEM/F12 to quiesce background activity. At the time of assay, cells were harvested using non-enzymatic cell dissociation solution (Sigma, #C-5914), washed and counted. The 20 hour starve media was collected and used as condition media for cell assay plating. Cells were plated at a concentration of 10,000 cells/well in a total well volume of […] in black 96-well clear bottom polystyrene plates (CoStar, #3904). Test compounds were prepared as serial dilutions in 100% DMSO, then 1 ul was delivered to each well resulting in a final concentration of 1% DMSO. The plates were then returned to a humidified incubator at 37° C./5% CO2 for 5 hours. Following the incubation, the medium was replaced with 50 ul of a 1:1 mixture of SteadyGlo™ (Promega, #E2550) and dPBS containing 1 mM CaCl2 and 1 mM MgCl2. Plates were then sealed and subjected to dark adaptation at room temperature for 10 minutes. Luciferase activity was measured on a Packard TopCount™ microplate scintillation counter using 2 seconds per well count time.
Data analysis was performed using standard methods.
The Normalization Equation used was 100*(Unknown compound response−Background response)/(Agonist Max response−Background response).
The Curve Fit Function used was y=((Vmax*x^n)/(K^n+x^n))+Y2.
A percent max response and pEC50 were recorded for each compound. Although specific pEC50 values are given, these values should be considered exemplary. Those skilled in the art will appreciate the variability in performing and recording the biological activity assays that are herein described. The compounds of the present invention provide a pEC50 of at least 5.0.
`O=C(O)C1CC1c1ccc(NCc2cccc(Oc3ccccc3)c2)cc1` (racemic) [Example 1, Racemic-(trans)-2-[4-({[3-(phenyloxy)phenyl]methyl}ammonium)phenyl]cyclopropanecarboxylic Acid Trifluoroacetate] gave an EC50 of 12.6 nM.

In turn, `O=C(O)[C@@H]1C[C@H]1c1ccc(NCc2ccc(-c3ccccc3)cc2)cc1` (racemic) [Example 2, Racemic-(trans)-2-{4-[(4-biphenylylmethyl)amino]phenyl}cyclopropanecarboxylic Acid] gave an EC50 of 25.1 nM.

`O=C(O)[C@@H]1C[C@H]1c1ccc(NCc2ccc(-c3ccccn3)cc2)cc1` (racemic) [Example 3, Racemic-(trans)-2-[4-({[4-(2-pyridinyl)phenyl]methyl}amino)phenyl]cyclopropanecarboxylic Acid] had an EC50 of 1580 nM.

In turn, `O=C(O)C1CC1c1ccc(NCc2cccc(Oc3ccc(Cl)c(Cl)c3)c2)cc1` (racemic) [Example 4, Racemic-(trans)-2-{4-[({3-[(3,4-dichlorophenyl)oxy]phenyl}methyl)ammonium]phenyl}-cyclopropanecarboxylic Acid Trifluoroacetate] had an EC50 of 2 nM.

Molecule `COc1ccc(Oc2cccc(CNc3ccc(C4CC4C(=O)O)cc3)c2)cc1` (racemic) [Example 5, Racemic-(trans)-2-(4-{[(3-{[4-(methyloxy)phenyl]oxy}phenyl)methyl]ammonium}phenyl)-cyclopropanecarboxylic Acid Trifluoroacetate] showed an EC50 of 20 nM.

`O=C(O)C1CC1c1ccc(NCc2cccc(Oc3ccc(Cl)cc3)c2)cc1` (racemic) [Example 6, Racemic-(trans)-2-{4-[({3-[(4-chlorophenyl)oxy]phenyl}methyl)ammonium]phenyl}-cyclopropanecarboxylic Acid Trifluoroacetate] showed a 50% effective concentration (EC50) of 15.8 nM.

In the case of `CC(C)(C)c1ccc(Oc2cccc(CNc3ccc(C4CC4C(=O)O)cc3)c2)cc1` (racemic) [Example 7, Racemic-(trans)-2-(4-{[(3-{[4-(1,1-dimethylethyl)phenyl]oxy}phenyl)methyl]ammonium}phenyl)cyclopropanecarboxylic Acid Trifluoroacetate], the EC50 is 20 nM.

On to `O=C(O)C1CC1c1ccc(NCc2cccc(Oc3cc(Cl)cc(Cl)c3)c2)cc1` (racemic) [Example 8, Racemic-(trans)-2-{4-[({3-[(3,5-dichlorophenyl)oxy]phenyl}methyl)ammonium]phenyl}-cyclopropanecarboxylic Acid Trifluoroacetate], for which the EC50 is 6.31 nM.

Regarding `O=C(O)C1CC1c1ccc(NCc2cccc(Oc3cccc(C(F)(F)F)c3)c2)cc1` (racemic) [Example 9, Racemic-(trans)-2-(4-{[(3-{[3-(trifluoromethyl)phenyl]oxy}phenyl)methyl]ammonium}-phenyl)cyclopropanecarboxylic Acid Trifluoroacetate], the EC50 is 7.94 nM.

The molecule `Cc1ccc(Oc2cccc(CNc3ccc(C4CC4C(=O)O)cc3)c2)cc1` (racemic) [Example 10, Racemic-(trans)-2-{4-[({3-[(4-methylphenyl)oxy]phenyl}methyl)ammonium]phenyl}-cyclopropanecarboxylic Acid Trifluoroacetate] showed an EC50 of 10 nM.

`O=C(O)C1CC1c1ccc(NCc2cccc(OCc3ccccc3)c2)cc1` (racemic) [Example 11, Racemic-(trans)-2-{4-[({3-[(phenylmethyl)oxy]phenyl}methyl)ammonium]phenyl}-cyclopropanecarboxylic Acid Trifluoroacetate] showed an EC50 of 126 nM. This EC50 lies about 13-fold higher than the previous one.

Molecule `Cc1nc(Oc2ccccc2)sc1CNc1ccc(C2CC2C(=O)O)cc1` (racemic) [Example 12, Racemic-(trans)-2-[4-({[4-methyl-2-(phenyloxy)-1,3-thiazol-5-yl]methyl}ammonium)-phenyl]cyclopropanecarboxylic Acid Trifluoroacetate] showed a concentration giving a half-maximal response (EC50) of 398 nM.

`Cc1nc(-c2ccc(C(F)(F)F)cc2)sc1CNc1ccc([C@@H]2C[C@H]2C(=O)O)cc1` (racemic) [Example 13, Racemic-(trans)-2-{4-[({4-methyl-2-[4-(trifluoromethyl)phenyl]-1,3-thiazol-5-yl}methyl)amino]phenyl}cyclopropanecarboxylic Acid] showed an EC50 of 20 nM.

For the molecule `CC(C)c1nc(-c2ccc(C(F)(F)F)cc2)sc1CNc1ccc([C@@H]2C[C@H]2C(=O)O)cc1` (racemic) [Example 14, Racemic-(trans)-2-{4-[({4-isopropyl-2-[4-(trifluoromethyl)phenyl]-1,3-thiazol-5-yl}methyl)amino]phenyl}cyclopropanecarboxylic Acid], it took 15.8 nM to reach a half-maximal effect (EC50). The EC50 values of the last two molecules are within 1.5-fold of each other.

The molecule `O=C(O)[C@@H]1C[C@H]1c1ccc(NCc2ccc(-c3ccc(Cl)cc3)o2)cc1` (racemic) [Example 15, Racemic-(trans)-2-[4-({[5-(4-chlorophenyl)-2-furanyl]methyl}amino)phenyl]cyclopropanecarboxylic Acid] gave an EC50 of 126 nM.

`O=C(O)[C@@H]1C[C@H]1c1ccc(NCc2ccc(OCc3ccccc3)cc2)cc1` (racemic) [Example 16, Racemic-(trans)-2-{4-[({4-[(phenylmethyl)oxy]phenyl}methyl)amino]phenyl}cyclopropanecarboxylic Acid trifluoroacetate] had an EC50 of 63.1 nM. Against the preceding molecule, the EC50 is about 2-fold lower.

`Cc1nc(Oc2ccc(F)c(F)c2)sc1CNc1ccc([C@@H]2C[C@H]2C(=O)O)cc1` (racemic) [Example 17, Racemic-(trans)-2-{4-[({2-[(3,4-difluorophenyl)oxy]-4-methyl-1,3-thiazol-5-yl}methyl)amino]phenyl}cyclopropanecarboxylic Acid] showed an EC50 of 251 nM.

`O=C(O)[C@@H]1C[C@H]1c1ccc(NCc2ccc(-c3ccc(C(F)(F)F)cc3)o2)cc1` (racemic) [Example 18, Racemic-(trans)-2-{4-[({5-[4-(trifluoromethyl)phenyl]-2-furanyl}methyl)amino]phenyl}cyclopropanecarboxylic Acid Trifluoroacetate] had an EC50 of 251 nM.

In the case of `O=C(O)[C@@H]1C[C@H]1c1ccc(NCc2ccc(-c3ccc(C(F)(F)F)cc3)s2)cc1` (racemic) [Example 19, Racemic-(trans)-2-{4-[({5-[4-(trifluoromethyl)phenyl]-2-thienyl}methyl)amino]phenyl}cyclopropanecarboxylic Acid Trifluoroacetate], the EC50 was 63.1 nM.

Turning to `O=C(O)[C@@H]1C[C@H]1c1ccc(NCc2cc(-c3ccc(C(F)(F)F)cc3)co2)cc1` (racemic) [Example 20, Racemic-(trans)-2-{4-[({4-[4-(trifluoromethyl)phenyl]-2-furanyl}methyl)amino]phenyl}cyclopropanecarboxylic Acid], the midpoint of the response, the EC50, lay at 158 nM.

`O=C(O)[C@H]1C[C@@H]1c1ccc(NCc2cccc(Cc3ccccc3)c2)cc1` (racemic) [Example 21, Racemic-(trans)-2-[4-({[3-(phenylmethyl)phenyl]methyl}amino)phenyl]cyclopropanecarboxylic Acid Trifluoroacetate] had an EC50 of 25.1 nM.

As for `O=C(O)[C@H]1C[C@@H]1c1ccc(NCc2cccc(Oc3ccc([N+](=O)[O-])cc3)c2)cc1` (racemic) [Example 22, Racemic-(trans)-2-{4-[({3-[(4-nitrophenyl)oxy]phenyl}methyl)amino]phenyl}cyclopropanecarboxylic Acid Trifluoroacetate], the EC50 was 316 nM. Against the preceding molecule, the EC50 is about 13-fold higher.

As for `O=C(O)[C@H]1C[C@@H]1c1ccc(NCc2cccc(Sc3ccccc3)c2)cc1` (racemic) [Example 23, Racemic-(trans)-2-[4-({[3-(phenylthio)phenyl]methyl}amino)phenyl]cyclopropanecarboxylic Acid Trifluoroacetate], the EC50 is 31.6 nM.

As for `Nc1ccc(Oc2cccc(CNc3ccc([C@H]4C[C@@H]4C(=O)O)cc3)c2)cc1` (racemic) [Example 24, Racemic-(trans)-2-{4-[({3-[(4-aminophenyl)oxy]phenyl}methyl)amino]phenyl}cyclopropanecarboxylic Acid Trifluoroacetate], a half-maximal response (EC50) required 200 nM. Against the preceding molecule, the EC50 is about 6.3-fold higher.

On to `NC(=O)C1CC1c1ccc(NCc2ccc(-c3ccccc3)cc2)cc1` (racemic) [Example 35, Racemic-(trans)-2-{4-[(4-biphenylmethyl)amino]phenyl}cyclopropanecarboxamide], for which the EC50 was 20 nM.

Consider `NC(=O)[C@@H]1C[C@H]1c1ccc(NCc2ccc(-c3ccccn3)cc2)cc1` (racemic) [Example 36, Racemic-(trans)-2-[4-({[4-(2-pyridinyl)phenyl]methyl}amino)phenyl]cyclopropanecarboxamide], for which a half-maximal effect (EC50) was put at 251 nM.
